According to patent US20120165559A1, “Compounds Having a Physiological Effect” (priority 2009, published 2012):
Where two headings read alike, the source gives them in different places.

Experiments:
[1] = system: skin and the mucous membranes, particularly of the mouth, of the nasal fossa and of the throat; assay: Organoleptic and physiological qualities of the compounds, noted by the inventors and flavor experts; format: in vivo; conditions: for Organoleptic qualities: Tables I-V
Description: The invention is based on the following observation, made by the inventors and backed up by flavor experts, that the physiological effects of N-ethyl-2-(2-isopropyl-5-methylcyclohexyl)acetamide: As mentioned above, the compounds of general formula (I) according to the invention have particular physiological effects. They cause a cool and/or warm sensation on the skin and the mucous membranes, particularly of the mouth, of the nasal fossa and of the throat. Some of these amides cause a more or less intense refreshing physiological effect giving the foods to which they are added a sensation of freshness, whereas others cause a warming physiological effect. Some of them can also cause other physiological effects, such as tingling or a piquant-burning physiological effect characteristic of substances that activate the trigeminal nerve, therefore giving the foods to which they are added a spicy sensation.

[2] = system: panelists / flavor experts; assay: Evaluation in mineral water; format: in vivo
Description: The molecule was evaluated in mineral water at a dosage of 30 ppm. […] The evaluation of the organoleptic properties of compound 10 was carried out in mineral water at a concentration of 1 ppm.

panelists [3] = assay: Mint flavoring evaluated in fondant; format: in vivo; conditions: in a mint flavoring, dosage of 50 ppm
Description: The molecule was tested in a mint flavoring and evaluated in fondant at a dosage of 50 ppm.

panelists [4] = assay: Citrus fruit flavoring in fatty filling; format: in vivo; conditions: 10% in a citrus fruit flavoring, flavoring at 0.3% in fatty filling
Description: The molecule was tested at 10% in a citrus fruit flavoring, the flavoring obtained was at a dose of 0.3% in fatty filling.

panel of flavor experts = assay: Comparative evaluation of enantiomers 1′ and 1″ and the racemic mixture by a panel of flavor experts; format: in vivo; conditions: enantiomers taken separately versus each other and versus the racemic mixture
Description: The enantiopure compounds 1′ and 1″ obtained in examples 21 and 22 and also the racemic mixture of compound 1 obtained in example 2 were subjected to a panel of flavor experts for a comparative evaluation of the organoleptic and physiological qualities.

panelists [5] = assay: Curry/capsicum flavoring evaluated in crackers; format: in vivo; conditions: flavoring in crackers at 5% (final dosage 500 ppm)
Description: Compound 10 was subsequently tested in a curry/capsicum flavoring and evaluated in crackers at 5% (final dosage: 500 ppm). [table]

panel of tasters = assay: Flavorings for oro-dental hygiene (mouthwashes, toothpaste); format: in vivo; conditions: alcoholic mouthwash, nonalcoholic mouthwash and toothpaste
Description: Compound 10 was tested in various applications: in an alcoholic mouthwash and a nonalcoholic mouthwash and in toothpaste. […] This molecule is very advantageous since it provides a tingling sensation on the edge of the tongue, which is piquant like a capsicum, and salivating. [table] Dosage of flavoring 0.2% Dosage of flavoring 0.2% Dosage of flavoring 1%

[6] = system: skin and the mucous membranes, particularly of the mouth, of the nasal fossa and of the throat; conditions: known from WO 2007/089252; cited from earlier work

Row | SMILES | Organoleptic qualities [1] | further results
1 | CNC(=O)CC1CC(C)CCC1C(C)C (racemic) [Compound 1, N-methyl-2-(2-isopropyl-5-methylcyclohexyl)acetamide] |  | effectiveness as refreshing agent, in terms of intensity and of perception threshold ([1]; comparative study among the refreshing agents 1, 19, 15, 17, 18, 8, 9): the most effective; aromatic note of the drink ([2]; dosage of 30 ppm): minty, pine, liquoricy, warming, piquant, salivating; sensation felt ([2]; dosage of 30 ppm): freshness which came very rapidly after swallowing; sensation perceived (panelists [3]): intense freshness which lasts for a few minutes; sensation perceived (panelists [4]): persistent freshness, and a change in the lemon profile
2 | C=C(C)[C@H]1CC[C@H](C)C[C@H]1CC(=O)NC [Compound 1′, N-methylamide of (1′S,2′S,5′S)-2-[(2′-isopropenyl-5′-methyl)cyclohex-1-yl]acetic acid] |  | difference in perception threshold and intensity of the refreshing effect felt (panel of flavor experts): did not make it possible to demonstrate any notable difference
3 | C=C(C)[C@@H]1CC[C@@H](C)C[C@@H]1CC(=O)NC [Compound 1″, N-methylamide of (1′R,2′R,5′R)-2-[(2′-isopropenyl-5′-methyl)cyclohex-1-yl]acetic acid] |  | difference in perception threshold and intensity of the refreshing effect felt (panel of flavor experts): did not make it possible to demonstrate any notable difference
4 | CC(C)CNC(=O)CC1CC(C)CCC1C(C)C (stereo not shown) [Compound 2, N-isobutyl-2-(2-isopropyl-5-methylcyclohexyl)acetamide] | Refreshing and tingling | 
5 | CC1CCC(C(C)C)C(CC(=O)NCC(=O)O)C1 (stereo not shown) [Compound 3, [2-(2-isopropyl-5-methylcyclohexyl)acetylamino]acetatic acid] | Warm | 
6 | CC(=O)OCCNC(=O)CC1CC(C)CCC1C(C)C (stereo not shown) [Compound 5, [2-(2-isopropyl-5-methylcyclohexyl)acetylamino]ethyl acetate] | Persistent mentholated | 
7 | CC1CCC(C(C)C)C(CC(=O)NCCO)C1 (stereo not shown) [Compound 6, N-(2-hydroxyethyl)-2-(2-isopropyl-5-methylcyclohexyl)acetamide] | Refreshing and tingling, | 
8 | CC1CCC(C(C)C)C(CC(=O)NCC(C)(C)O)C1 (stereo not shown) [Compound 7, N-(2-hydroxy-2-methylpropyl)-2-(2-isopropyl-5-methylcyclohexyl)acetamide] | Woody, piquant, and cold, | 
9 | CNC(=O)C(C)C1CC(C)CCC1C(C)C (stereo not shown) [Compound 8, 2-(2-isopropyl-5-methylcyclohexyl)-N-methylpropionamide] | Piquant, slight | 
10 | CNC(=O)CC(C)C1CC(C)CCC1C(C)C (stereo not shown) [Compound 9, 3-(2-isopropyl-5-methylcyclohexyl)-N-methylbutyramide] | Cool | 
11 | COc1cc(CNC(=O)CC2CC(C)CCC2C(C)C)ccc1O (stereo not shown) [Compound 10, N-(4-hydroxy-3-methoxybenzyl)-2-(2-isopropyl-5-methylcyclohexyl)acetamide] | Warm and piquant like pepper, with a salivating effect | physiological effect [1]: strong piquant-burning physiological effect; sensation felt ([2]; concentration of 1 ppm): burning and salivation sensation which comes immediately after depositing on the tongue; duration of sensation (panelists [5]): more longlasting sensation; sensation felt (panel of tasters): piquant and warming sensation
12 | COC(=O)c1ccccc1NC(=O)CC1CC(C)CCC1C(C)C (stereo not shown) [Compound 11, N-(2-methyloxycarbonylphenyl)-2-(2-isopropyl-5-methylcyclohexyl)acetamide] | Warm | physiological effect [1]: notable warming physiological effect, devoid of the piquant-burning aspect
13 | CC1CCC(C(C)C)C(CC(=O)Nc2ccc(C#N)cc2)C1 (stereo not shown) [Compound 12, N-(4-cyanophenyl)-2-(2-isopropyl-5-methylcyclohexyl)acetamide] | Warm | 
14 | CC1CCC(C(C)C)C(CC(=O)Nc2ccc(CC#N)cc2)C1 (stereo not shown) [Compound 13, N-(4-cyanomethylphenyl)-2-(2-isopropyl-5-methylcyclohexyl)acetamide] | Warm | 
15 | CC1CCC(C(C)C)C(CC(=O)NCc2ccc3c(c2)OCO3)C1 (stereo not shown) [Compound 14, N-benzo[1,3]dioxol-5-ylmethyl-2-(2-isopropyl-5-methylcyclohexyl)acetamide] | Warm and cold at the back of the throat, with a vanilla note | 
16 | C=C(C)C1CCC(C)CC1CC(=O)NC (stereo not shown) [Compound 15, 2-(2-isopropenyl-5-methylcyclohexyl)-N-methylacetamide] | Refreshing | 
17 | C=C(C)C1CCC(C)CC1CC(=O)NCc1ccc(O)c(OC)c1 (stereo not shown) [Compound 16, N-(4-hydroxy-3-methoxybenzyl)-2-(2-isopropenyl-5-methylcyclohexyl)acetamide] | Powerful piquant with delayed effect, salivating, slightly woody | 
18 | CNC(=O)CC1=C(C(C)C)CCC(C)C1 (stereo not shown) [Compound 17, 2-(2-isopropyl-5-methylcyclohex-1-enyl)-N-methylacetamide] | Refreshing | melting point: 82 °C
19 | CNC(=O)C=C1CC(C)CCC1C(C)C (stereo not shown) [Compound 18, 2-(2-isopropyl-5-methylcyclohexylidene)-N-methylacetamide] | Refreshing | 
20 | CNC(=O)CC1C=C(C)CCC1C(C)C (stereo not shown) [Compound 19, 2-(6-isopropyl-3-methylcyclohex-2-enyl)-N-methylacetamide] | Refreshing with a delayed | 
21 | CCNC(=O)CC1CC(C)CCC1C(C)C (stereo not shown) [N-ethyl-2-(2-isopropyl-5-methylcyclohexyl)acetamide] |  | physiological effect [6]: refreshing agent
